According to US11934044B2, “WS12-releasing contact lens” (CooperVision International Limited, priority 2021, dated 2024):

Experiment: WS12 leaching from lens into PBS packaging solution during autoclave (HPLC)
Assay type: physicochemical
Settings: standard contact lens sterilization and storage conditions
Description: Silicone hydrogel contact lenses were prepared by curing the formulation for stenfilcon A in contact lens molds. The cured stenfilcon A was removed from the molds and extracted by immersing them for 215 minutes in ethanol (EtOH) containing WS12 (Tocris Bioscience) in the loading concentrations shown in Table I. The lenses were removed from the EtOH and washed in DI water for approximately 6 minutes, followed by two exchanges of DI water for approximately 30 minutes each. The lenses were transferred to 6 mL glass vials containing 3 mL phosphate buffered saline at pH 7.5 (0.78 wt. % NaCl, 0.05 wt. % sodium phosphate monobasic, and 0.36 wt. % sodium phosphate dibasic), referred to herein as PBS. The vials were sealed and autoclaved.
Each autoclaved lens was transferred to a vial containing 3 ml EtOH and stored overnight on a 150 rpm shaker at room temperature to extract WS12 from the lens. The EtOH extracts and the PBS in which the lenses were autoclaved were submitted for analysis by HPLC (detection wavelength=250 nm) against calibration standards to determine the average amount of WS12 loaded into each (n=5) and whether the WS12 leaches from the lens during autoclave.

stability of WS12 in hydrogel lens material during sterilization and storage: without degradation or leaching
SMILES: COc1ccc(NC(=O)C2CC(C)CCC2C(C)C)cc1 (stereo not shown) [WS12, N-(4-Methoxyphenyl)-5-methyl-2-(1-methylethyl)cyclohexanecarboxamide]
